Laboratory results as given in PMC12166061, “Crystallographic fragment screening reveals ligand hotspots in TRIM21 PRY-SPRY domain” (Communications Chemistry, 2025).
Like-named read-outs stand apart in the source and are kept apart here.

Assays:
[1] = molecular target: T1, full-length hTRIM21 with C-terminal NanoLuc fusion (Homo sapiens, UniProt P19474); conditions: for cell permeability: inferred from intact versus lysed NanoBRET; for tracer displacement: compound at 500 µM, NanoBRET
Method: (§4) Full-length hTRIM21 with N- or C-terminal NanoLuc fusion was transfected into HEK293T cells (ATCC) using Fugene 4K (Promega, Cat. No. E5911) transfection reagent according to the manufacturer’s instructions. Following protein expression for 24 h, cells were split again in OptiMEM medium (phenol red free, Life Technologies) to a final amount of 2 × 10^5 cells per mL and 10 µL per well were distributed in a 384 well plate. Next, tracer AL244 (2) was added in concentrations from 3 µM to 6 nM. […] Then, cells were permeabilized through the addition of 25 nL Digitonin (0.05 µg µL^−1). Following another 5-min incubation, filtered luminescence was measured again. The data acquired in the tracer titration was converted into mBRET units (Fluorescence intensity at 610 nm / Luminescence intensity at 450 nm) × 1000 and graphed using Graph-Pad Prism v.9 software.
(§5) A 384-well plate with cells expressing hTRIM21-NLuc was prepared as described above. […] Then, cells were permeabilized with Digitonin and, following 5 min of incubation, filtered luminescence was measured. The data acquired in the competition experiments were converted to mBRET units, then normalized to the positive and negative control and graphed using Graph-Pad Prism v.9 software using a normalized three-parameter curve fit using the following equation: y = 100/[1 + 10(x − logIC50)].

[2] = molecular target: T1, full-length hTRIM21 with C-terminal NanoLuc fusion; test: cell-based; conditions: tracer AL244 (2)
Method: as §4, §5

[3] = molecular target: T2, human TRIM21 PRY-SPRY domain (Homo sapiens, UniProt P19474); test: Differential scanning fluorimetry (DSF, ΔTm), human TRIM21 PRY-SPRY domain; type: binding
T2 construct: Human TRIM21 PRY-SPRY domain (residues V287-I465, UniProt-ID: P19474); His6 (N, cleaved yes); SUMO (N, cleaved yes); made in house; host or cells: E. coli BL21(DE3)
Method: (§1) Briefly, recombinant murine and human TRIM21 PRY-SPRY domain at a concentration of 8 μM were mixed with 2 mM compound in their respective SEC buffer. SYPRO Orange (5000×, Invitrogen) was added as a fluorescence probe (1 µl per mL). Subsequently, temperature-dependent protein unfolding profiles were measured using the QuantStudio™ 5 realtime PCR machine (Thermo Fisher). Excitation and emission filters were set to 465 nm and 590 nm, respectively. The temperature was raised with a step rate of 3 °C per minute. Data points were analysed with the internal software (Thermal Shift SoftwareTM Version 1.4, Thermo Fisher) using the Boltzmann equation to determine the inflection point of the transition curve.

[4] = molecular target: T3, murine TRIM21 PRY-SPRY domain (Mus musculus, UniProt Q62191); test: Differential scanning fluorimetry (DSF, ΔTm), mouse TRIM21 PRY-SPRY domain; type: binding
T3 construct: mouse TRIM21 PRY-SPRY domain (residues V291-M470, UniProt-ID: Q62191); made in house; host or cells: E. coli BL21(DE3)
T3 sequence (Q62191 291-470): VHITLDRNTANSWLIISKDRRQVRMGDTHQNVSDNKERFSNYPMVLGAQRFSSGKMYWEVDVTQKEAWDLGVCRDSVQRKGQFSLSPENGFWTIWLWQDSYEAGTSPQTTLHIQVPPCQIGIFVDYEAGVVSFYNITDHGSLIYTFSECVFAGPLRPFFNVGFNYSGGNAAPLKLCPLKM
Method: as §1

His-mTRIM21 PRYSPRY = molecular target: T4, His-mTRIM21 PRYSPRY (Mus musculus, UniProt Q62191); test: SPR fragment screening and dose response, mouse TRIM21 PRY-SPRY; type: binding
T4 construct: mouse TRIM21 PRY-SPRY domain (residues V291-M470, UniProt-ID: Q62191); made in house; host or cells: E. coli BL21(DE3)
T4 sequence (Q62191 291-470): T3 sequence (Q62191 291-470)
Method: (§2) His-mTRIM21 PRYSPRY and His-SUMO-hTRIM21 PRY-SPRY were immobilized onto flow channels (FC) FC2, FC3, and FC4 of a Series S sensor chip NTA (Cytiva). […] Proteins (10–20 µg mL^−1 in HBS-P+) were injected at 10 µL min^−1 to achieve response levels of 3500–4300 RU for mTRIM21 and 3600–4000 RU for hTRIM21. Flow channel 1 (FC1) was used as a reference surface. Surface deactivation and nickel stripping were achieved using 1 M ethanolamine and 350 mM ethylenediaminetetraacetic acid (EDTA), respectively.
(§3) Fragment screening was conducted by injecting 500 µM fragments diluted in running buffer (HBS-P+ with 1 mM TCEP and 2% (v/v) dimethyl sulfoxide (DMSO)) over all flow-channels for 30 s at 30 µL/min^−1. To account for surface drift, 50 µM of a control compound (Suramin) was injected every 15 fragment injections, and blank injections were performed every 5 fragments. Responses were analyzed by blank subtraction, reference subtraction (FC1), solvent correction, molecular weight adjustment, and drift correction using Biacore T200 Evaluation Software v3.2.1. The binding threshold for fragment hits was set based on the Suramin-binding response level.
The data was solvent-corrected, reference-subtracted (FC1), and blank-subtracted using the T200 Evaluation Software v3.2.1. Sensorgrams were subsequently replotted using Graphpad v.9 software.

[5] = molecular target: T5, His-SUMO-hTRIM21 PRY-SPRY (Homo sapiens, UniProt P19474); test: SPR fragment screening, human TRIM21 PRY-SPRY; type: binding
T5 construct: Human TRIM21 PRY-SPRY domain (residues V287-I465, UniProt-ID: P19474); made in house; host or cells: E. coli BL21(DE3)
Method: as §2, §3

TRIM21 [6] = conditions: mouse TRIM21; read-out: affinity; cited from earlier work
TRIM21 PRY-SPRY domain = test: DSF ΔTm of control suramin, species not stated; type: binding; conditions: at the screening concentration
Method: as §1

TRIM21 [7] = conditions: human TRIM21; read-out: affinity; cited from earlier work
[8] = single dose 500 µM fragment, relative response, suramin reference threshold 100 relative RU

T2 sequence (P19474 287-465): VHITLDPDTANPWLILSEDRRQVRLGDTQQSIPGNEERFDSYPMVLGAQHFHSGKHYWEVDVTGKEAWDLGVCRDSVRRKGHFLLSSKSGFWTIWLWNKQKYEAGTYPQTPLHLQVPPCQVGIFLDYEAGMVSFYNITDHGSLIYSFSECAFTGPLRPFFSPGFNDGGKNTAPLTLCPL
T1 sequence (P19474 whole entry, the tested form may be a part): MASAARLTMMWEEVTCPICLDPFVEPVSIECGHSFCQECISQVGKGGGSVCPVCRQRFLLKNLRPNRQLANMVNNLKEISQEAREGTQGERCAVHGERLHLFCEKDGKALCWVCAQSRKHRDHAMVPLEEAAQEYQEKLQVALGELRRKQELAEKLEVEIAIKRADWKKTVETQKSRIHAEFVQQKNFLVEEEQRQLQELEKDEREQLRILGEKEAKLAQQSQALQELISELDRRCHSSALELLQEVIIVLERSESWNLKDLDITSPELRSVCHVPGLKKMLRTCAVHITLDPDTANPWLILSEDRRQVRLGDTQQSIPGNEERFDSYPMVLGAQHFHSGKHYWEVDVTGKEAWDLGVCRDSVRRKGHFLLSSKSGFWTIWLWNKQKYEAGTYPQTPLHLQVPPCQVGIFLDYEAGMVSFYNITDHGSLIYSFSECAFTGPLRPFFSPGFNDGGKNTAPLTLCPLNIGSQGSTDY
T5 sequence (P19474 287-465): as the sequence (P19474 287-465) above

## CSc1cc(F)ccc1-c1ccc(C(=O)NCC2CCCCC2)c(S(C)(=O)=O)c1 [AL236 (1)]
[1]
  cell permeability: high cell permeability
[2]; NanoBRET EC50 (intact), intact (live) HEK293T cells
  EC50: 0.197 µM
[2]; NanoBRET EC50 (lysed), permeabilized (lysed mode, digitonin) cells
  EC50: 0.297 µM

## O=C(Nc1ccc(S(=O)(=O)Nc2ccccn2)cc1)c1ccccc1 [AL257 (3)]
[1]
  tracer displacement: displaced the tracer almost completely
  cell permeability: effective cell penetration
[2]; NanoBRET EC50 (intact), intact HEK293T cells
  EC50: 143 µM
[2]; NanoBRET EC50 (lysed), lysed cells (digitonin)
  EC50: 246 µM

## CN(CCCCNS(=O)(=O)c1ccc(N)cc1)C(=O)c1cccs1 [AL266 (4)]
[1]
  tracer displacement: no activity

## CCNC1CCN(c2ccncc2)CC1 [Fragment Z2065616520]
[3]; 2 mM compound, 8 μM protein
  Tm-Shift hTRIM21: 0.6 °C
[1]
  tracer displacement: ~ 40%
[4]; 2 mM compound, 8 μM protein
  Tm-shift mTRIM21: 0.4 °C

## O=C(COC(F)F)N1CC2CCCC2C1 (centres unmarked) [Fragment Z2072621991]
[3]
  Tm-Shift hTRIM21: -0.2 °C
[4]
  Tm-shift mTRIM21: 0 °C
His-mTRIM21 PRYSPRY
  SPR mTRIM21 (Response): 46.61
[5]
  SPR hTRIM21 (Response): 28.49

## O=C1CN(Cc2ccccc2)CC(=O)N1 [Fragment Z3220108246]
[3]; 2 mM compound, 8 μM protein
  Tm-Shift hTRIM21: -0.1 °C
[4]; 2 mM compound, 8 μM protein
  Tm-shift mTRIM21: -0.5 °C
His-mTRIM21 PRYSPRY; [8]
  SPR mTRIM21 (Response): 58.83
[5]; [8]
  SPR hTRIM21 (Response): 60.94

## Cc1ccc(C(=O)Nc2ccc(S(=O)(=O)O)c3cc(S(=O)(=O)O)cc(S(=O)(=O)O)c23)cc1NC(=O)c1cccc(NC(=O)Nc2cccc(C(=O)Nc3cc(C(=O)Nc4ccc(S(=O)(=O)O)c5cc(S(=O)(=O)O)cc(S(=O)(=O)O)c45)ccc3C)c2)c1 [suramin]
TRIM21 [6]
  Kd: ~10 µM
TRIM21 PRY-SPRY domain
  ΔTm shift: 2.3 °C
His-mTRIM21 PRYSPRY; suramin injected at 50 µM as reference, species not stated
  SPR response of reference: 100 relative RU
TRIM21 [7]
  Kd: ~10 µM
